Data on eight compounds can be found in PubChem BioAssay (NCI).

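Protocol summary: plate cells (96-well), add compound at 5 concentrations, incubate 48 h, interpolate endpoints linearly. GI50: concentration for 50% inhibition of growth. TGI: total growth inhibition.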 Some results are limits rather than exact numbers.

Some test systems named below: DU-145 prostate; HOP-62 NSCLC; HS 578T breast; K-562 leukemia; KM12 colon; NCI-H522 lung; OVCAR-4 ovarian; SF-268 CNS; TK-10 renal; UACC-257 melanoma.
What all share (assay): NCI-60 cell line screen, 48 h

Consider `C/C(=N/S(=O)(=O)c1ccc(Cl)c(Cl)c1)OCC(C)(C)C`, for which the TGI in the assay on DU-145 prostate, with HOP-62 NSCLC, in the assay with HS 578T breast, with K-562 leukemia, in the assay with KM12 colon and with NCI-H522 lung was > 100 µM each time. Further, the TGI in the assay on OVCAR-4 ovarian, with SF-268 CNS, with TK-10 renal and with UACC-257 melanoma was > 100 µM each time.
On to `COc1ccc(/C=C/C(=O)c2cc3c(N)c(C(=O)Nc4ccccc4Cl)sc3nc2C)cc1`, for which the GI50 in the assay on DU-145 prostate was 2.78 µM; in the assay with HOP-62 NSCLC, 1.62 µM; with HS 578T breast it was 0.937 µM; in the assay on K-562 leukemia it was 2.49 µM; with KM12 colon, 3.48 µM; in the assay on NCI-H522 lung, 0.365 µM. The GI50 with OVCAR-4 ovarian is 1.7 µM; in the assay with SF-268 CNS, 3.39 µM; with TK-10 renal, 2.64 µM; in the assay on UACC-257 melanoma it was 1.19 µM. Also, the TGI was > 50 µM in the assay on DU-145 prostate; 8.02 µM with HOP-62 NSCLC; 4.56 µM in the assay with HS 578T breast; > 50 µM in the assay with K-562 leukemia; > 50 µM in the assay on KM12 colon; > 50 µM with NCI-H522 lung. The TGI in the assay on OVCAR-4 ovarian came to 46 µM; with SF-268 CNS, 27.9 µM; in the assay with TK-10 renal, 30.5 µM; in the assay on UACC-257 melanoma, 13.5 µM.
As for `Nc1ccccc1C#C/C=C\C#Cc1ccccc1C(F)(F)F`, the GI50 with DU-145 prostate was 2.7 µM; in the assay with HOP-62 NSCLC, 0.588 µM; in the assay on HS 578T breast, 1.26 µM; in the assay on K-562 leukemia, 1.07 µM; in the assay with KM12 colon it was 1 µM; in the assay on NCI-H522 lung, 2.07 µM. In addition, the GI50 in the assay on SF-268 CNS is 1.67 µM; in the assay on TK-10 renal, 8.3 µM; in the assay with UACC-257 melanoma it was 0.536 µM. Besides, the TGI with DU-145 prostate was 14.7 µM; with HOP-62 NSCLC it was 18.7 µM; with HS 578T breast, 25.2 µM; in the assay on K-562 leukemia it was 3.74 µM; with KM12 colon it was 12.7 µM; in the assay on NCI-H522 lung, 34.3 µM. For the same compound, the TGI in the assay with SF-268 CNS worked out at 20.4 µM; with TK-10 renal, 27.9 µM; with UACC-257 melanoma it was 23.7 µM.
Regarding `O=C1CCC(Cc2ccc(Cl)cc2Cl)C(=O)N1` (stereo unspecified), the TGI in the assay on DU-145 prostate, in the assay with HOP-62 NSCLC, with HS 578T breast, with K-562 leukemia, with NCI-H522 lung and in the assay on OVCAR-4 ovarian was > 100 µM each time. For the same compound, the TGI in the assay on SF-268 CNS, with TK-10 renal and in the assay on UACC-257 melanoma was > 100 µM throughout.
As to `CC1=C([Se]CC(OC(=O)CC[Se]c2ccccc2)C(=O)NCCCCCC(=O)OCc2ccccc2)C(=O)c2ccccc2C1=O` (stereo unspecified), the GI50 is 3.64 µM in the assay on DU-145 prostate; 1.87 µM in the assay on HOP-62 NSCLC; 2.47 µM in the assay with HS 578T breast; 3.31 µM in the assay with K-562 leukemia; 2.27 µM in the assay with KM12 colon; 2.28 µM in the assay on NCI-H522 lung. Moreover, the GI50 in the assay with OVCAR-4 ovarian was 2.28 µM; in the assay on SF-268 CNS, 2.5 µM; with TK-10 renal, 4.47 µM; with UACC-257 melanoma, 2.78 µM. Also, the TGI in the assay with DU-145 prostate came to 11.4 µM; with HOP-62 NSCLC it was 4.32 µM; in the assay with HS 578T breast, 34.2 µM; in the assay with K-562 leukemia it was 23.7 µM; in the assay on KM12 colon, 5.45 µM; in the assay on NCI-H522 lung, 6.16 µM. For the same compound, the TGI was determined as 6.56 µM with OVCAR-4 ovarian, 6.31 µM in the assay with SF-268 CNS, 12.4 µM in the assay with TK-10 renal and 7.9 µM in the assay with UACC-257 melanoma.
Regarding `Cc1cn(C2CC(F)C(CO)O2)c(=O)[nH]c1=O` (stereo unspecified), the GI50 with DU-145 prostate, in the assay on HOP-62 NSCLC, with HS 578T breast, with K-562 leukemia, with KM12 colon and in the assay with NCI-H522 lung was > 100 µM in each case. Moreover, the GI50 in the assay with OVCAR-4 ovarian, with TK-10 renal and in the assay on UACC-257 melanoma was > 100 µM in each case. Also, the TGI in the assay with DU-145 prostate, with HOP-62 NSCLC, in the assay with HS 578T breast, in the assay on K-562 leukemia, in the assay on KM12 colon and in the assay with NCI-H522 lung was > 100 µM each time. Further, the TGI in the assay with OVCAR-4 ovarian, in the assay on TK-10 renal and in the assay on UACC-257 melanoma was > 100 µM in each case.
`O=c1cccc(C#CC#C[C@H]2O[C@@H]2CO)o1`: the GI50 was 1.56 µM in the assay on DU-145 prostate; 0.423 µM in the assay on HOP-62 NSCLC; 2.91 µM in the assay with HS 578T breast; 0.182 µM with K-562 leukemia; 0.986 µM in the assay on KM12 colon; 3.56 µM with NCI-H522 lung. For the same compound, the GI50 with SF-268 CNS is 2.49 µM; with TK-10 renal, 0.495 µM; in the assay on UACC-257 melanoma it was 1.16 µM. Also, the TGI in the assay with DU-145 prostate was 3.24 µM; in the assay on HOP-62 NSCLC, 1.54 µM; with HS 578T breast it was 9.69 µM; in the assay on K-562 leukemia, > 100 µM; in the assay on KM12 colon, 3.47 µM; with NCI-H522 lung, > 100 µM. Further, the TGI worked out at 7.51 µM in the assay on SF-268 CNS, 1.93 µM in the assay with TK-10 renal and 2.91 µM in the assay on UACC-257 melanoma.
`OCCCCC#Cc1ccccc1C#Cc1ccccc1`: the GI50 in the assay with DU-145 prostate was 5.22 µM; with HOP-62 NSCLC, 16.3 µM; in the assay with HS 578T breast, 15.6 µM; in the assay on K-562 leukemia, 22.1 µM; in the assay with NCI-H522 lung it was 27 µM; with OVCAR-4 ovarian it was 18 µM. For the same compound, the GI50 in the assay on SF-268 CNS is 16.8 µM; in the assay with TK-10 renal it was 13.2 µM; in the assay with UACC-257 melanoma it was 19.4 µM. Moreover, the TGI is 20.2 µM with DU-145 prostate; 30.6 µM with HOP-62 NSCLC; 39.6 µM with HS 578T breast; > 100 µM in the assay on K-562 leukemia; > 100 µM in the assay on NCI-H522 lung; 53.2 µM in the assay on OVCAR-4 ovarian. The TGI is 37.6 µM with SF-268 CNS, 26.3 µM in the assay with TK-10 renal and 43.8 µM with UACC-257 melanoma.
